Results on six molecules are retold here after paper PMC3863386 (Journal of the American Chemical Society, 2013).

Where two headings read alike, the source gives them in different places.

For assay [1], the target named is T1, LsrR (Escherichia coli, UniProt P76141). The conditions noted are these: for ΔH / ΔS: ITC titration of LsrR. (ITC needs no label: the signal is the heat of the interaction.)
Assay [2] deals with T1, LsrR. The conditions noted are these: compared to LsrR alone.
For the next assay, the target named is C-LsrR Q215A (Escherichia coli, UniProt P76141, Q215A). The note with it: compared to wild type C-LsrR.
Sequence of C-LsrR Q215A (P76141 53-317 Q215A): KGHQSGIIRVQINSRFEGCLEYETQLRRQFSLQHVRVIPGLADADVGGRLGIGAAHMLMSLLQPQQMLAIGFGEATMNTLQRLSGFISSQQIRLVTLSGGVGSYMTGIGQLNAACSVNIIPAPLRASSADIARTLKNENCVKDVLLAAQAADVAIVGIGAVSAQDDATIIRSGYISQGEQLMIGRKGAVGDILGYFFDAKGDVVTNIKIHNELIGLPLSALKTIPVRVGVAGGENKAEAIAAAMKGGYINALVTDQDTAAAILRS
The target in a further assay is C-LsrR T220A (Escherichia coli, UniProt P76141, T220A). The note with it: compared to wild type C-LsrR.
Sequence of C-LsrR T220A (P76141 53-317 T220A): as the sequence (P76141 53-317 Q215A) above, with A163Q, T168A counted along it
A further assay has as its target C-LsrR D243A (Escherichia coli, UniProt P76141, D243A). The note with it: compared to wild type C-LsrR.
A further assay addresses C-LsrR K288A (Escherichia coli, UniProt P76141, K288A). The conditions noted are these: compared to wild type C-LsrR.
Assay [3] deals with LsrR. The note with it: cited from earlier work.
A further assay concerns the target C-LsrR (Escherichia coli, UniProt P76141). Nature of the assay: biochemical. The note with it: LsrR-binding affinity (Kd), approximate, rounded summary value.
A further assay has as its system QS signaling in E. coli. The note with it: after in vivo phosphorylation by LsrK; cited from earlier work.
The subject of assay [4] is QS signaling in S. typhimurium. The conditions noted are these: after in vivo phosphorylation by LsrK; cited from earlier work.
The next assay concerns E. coli biofilms. The note with it: simultaneous treatment with the antibiotic gentamicin; cited from earlier work.

T1 sequence (P76141 whole entry): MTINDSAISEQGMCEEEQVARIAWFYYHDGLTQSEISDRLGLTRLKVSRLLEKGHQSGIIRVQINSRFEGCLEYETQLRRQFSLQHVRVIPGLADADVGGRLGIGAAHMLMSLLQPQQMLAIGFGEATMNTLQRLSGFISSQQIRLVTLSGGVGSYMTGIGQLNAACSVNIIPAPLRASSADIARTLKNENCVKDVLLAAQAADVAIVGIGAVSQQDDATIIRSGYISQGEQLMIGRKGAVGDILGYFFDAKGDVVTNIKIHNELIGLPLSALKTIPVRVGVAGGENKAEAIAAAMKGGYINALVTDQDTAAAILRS
Sequence of C-LsrR D243A (P76141 53-317 D243A): as the sequence (P76141 53-317 Q215A) above, with A163Q, D191A counted along it
Sequence of C-LsrR K288A (P76141 53-317 K288A): as the sequence (P76141 53-317 Q215A) above, with A163Q, K236A counted along it
Sequence of C-LsrR (P76141 53-317): as the sequence (P76141 53-317 Q215A) above, with A163Q counted along it

The Kd is the equilibrium constant for the complex coming apart. At LsrR [1] (20°C), `CC(=O)C(=O)[C@@H](O)COP(=O)(O)O` [D5P, phospho-DPD] came in with a ΔH of 0.98 kcal/mol. This molecule also showed a ΔS on LsrR [1] (20°C) of 23.0 cal/mol/K. The Kd at LsrR [1] (read-out: Kd of LsrR (ITC), ITC, 20°C, one-site binding model) was 1.78 ± 0.13 µM; on LsrR [1] (read-out: LsrR-binding affinity (Kd), approximate, rounded summary value), about 2 µM. In addition, the “Change of the DLS size distribution of LsrR on addition of ligand” value (from here on “Change”) at LsrR [2] is reported as “clearly changed the DLS pattern of LsrR”. Also, the “Effect of Q215A mutation on D5P binding affinity” value at C-LsrR Q215A is “moderate”. In addition, the “Effect of T220A mutation on D5P binding affinity” value on C-LsrR T220A is given as “significant decrease of the binding affinity”. Besides, the “Effect of D243A mutation on D5P binding affinity” value at C-LsrR D243A is reported as “less affinity for D5P than the wild type”. Further, the “Effect of K288A mutation on D5P binding affinity” value on C-LsrR K288A is recorded as “less affinity for D5P than the wild type”. For the same molecule, the Agonist or antagonist result in the assay on LsrR [3] is reported as “agonists”.
Take `CCC(=O)C(=O)[C@@H](O)COP(=O)(O)O` [D6P, phospho-ethyl-DPD]: in the assay on LsrR [3], the Agonist or antagonist result is recorded as “agonists”.
Take `CCCC(=O)C(=O)C(O)COP(=O)(O)O` (stereo not shown) [D7P, phospho-propyl-DPD]: in the assay with LsrR [3], the Agonist or antagonist result was “antagonist”.
On to `O=C[C@H](O)[C@H](O)[C@H](O)COP(=O)(O)O` [R5P, D-ribose 5-phosphate], for which the “Change” value at LsrR [2] was “did not show any apparent changes in the size distribution”. This molecule gave a Kd on C-LsrR of about 1000 µM.
For `CC(C)CC(=O)C(=O)[C@@H](O)CO` [isobutyl-DPD], the “Effect on QS signaling” value (in the assay with QS signaling in E. coli; in [4]) was “attenuated QS signaling” each time. Besides, the Effect on biofilms result with E. coli biofilms is “dramatically reduced biofilm formation and cleared extant biofilms”.
With phospho-isobutyl DPD [D8P], on LsrR [1] (20°C), the ΔH is 5.3 kcal/mol and the ΔS is reported as 11.2 cal/mol/K. The “Change” value at LsrR [2] is recorded as “did not show any apparent changes in the size distribution”. In the assay with LsrR [3], the Agonist or antagonist entry is “antagonist” and the “Inhibition of LsrR / QS signal transduction” value is given as “very potent inhibitor”.
